Data taken from patent publication US20070179152A1, “Combination therapy for the treatment of neoplasms” (priority 2003, published 2007).
Counter-ions that a name gives are not always drawn. Like-named read-outs stand apart in the source and are kept apart here.

Tests used:
Type in all cases: cell-based
HCT116 cells = assay: Anti-proliferation assay (Alamar Blue metabolism), HCT116; settings: Homo sapiens, read-out: Percent inhibition of Alamar Blue Metabolism
Description: (§1) Itraconazole was obtained from […].). Stock solutions (1000×) of each compound were prepared in DMSO and stored at -20° C. Master stock plates of 2-fold serial dilutions of individual compounds were prepared in 384-well plates. Combination matrices of test compounds were generated from these master stock plates by dilution into growth media described above. […] The combination matrices were used immediately and discarded. The anti-proliferation assays were performed in 384 well plates. […] Cells were diluted in culture media such that 3,000 SKMEL cells, or 1,500 cells for all the other cell lines, were delivered in 35 μl of media into each assay well. […] Then, 4.5 μl of 10× stock solutions from the combination matrices were added to 40 μl of culture media. […] Quantification, using the LJL Analyst AD reader (LJL Biosystems), was taken in the middle of the well with high attenuation, a 100 msec read time, an excitation filter at 530 nm, and an emission filter at 575 nm. For some experiments, quantification was performed using a Wallac Victor^2 reader. Measurements were taken at the top of the well with stabilized energy lamp control; a 100 msec read time, an excitation filter at 530 nm, and an emission filter at 590 nm.

A549 cells = assay: Anti-proliferation assay (Alamar Blue metabolism), A549; settings: Homo sapiens, read-out: Percent inhibition of Alamar Blue Metabolism
Description: as §1

DU145 cells = assay: Anti-proliferation assay (Alamar Blue metabolism), DU145; settings: Homo sapiens, DU-145; read-out: Percent inhibition of Alamar Blue Metabolism
Description: as §1

SKMEL-28 cells = assay: Anti-proliferation assay (Alamar Blue metabolism), SKMEL-28; settings: Homo sapiens, SK-MEL-28; read-out: Percent inhibition of Alamar Blue Metabolism
Description: as §1

CC(C)COCC(CN(Cc1ccccc1)c1ccccc1)N1CCCC1 (stereo not drawn) [Bepridil, beta-((2-methylpropoxy)methyl)-N-phenyl-N-(phenylmethyl)-1-pyrrolidineethanamine]
inhibition at 1.5 µM (HCT116 cells; HCT-116, itraconazole 0 μM, bepridil 1.5 μM): 5.1%
inhibition at 3 µM (HCT116 cells; HCT-116, itraconazole 0 μM, bepridil 3 μM): 17.4%
inhibition at 6.1 µM (HCT116 cells; HCT-116, itraconazole 0 μM, bepridil 6.1 μM): 54%
inhibition at 12 µM (HCT116 cells; HCT-116, itraconazole 0 μM, bepridil 12 μM): 33.2%
inhibition at 24 µM (HCT116 cells; HCT-116, itraconazole 0 μM, bepridil 24 μM): 79%
inhibition at 48 µM (HCT116 cells; HCT-116, itraconazole 0 μM, bepridil 48 μM): 96.4%

CCC(C)n1ncn(-c2ccc(N3CCN(c4ccc(OCC5COC(Cn6cncn6)(c6ccc(Cl)cc6Cl)O5)cc4)CC3)cc2)c1=O (centres unmarked) [Itraconazole, itraconazole]
inhibition at 0.44 µM (A549 cells): 3.7%
inhibition at 0.87 µM (A549 cells): 11.5%
inhibition at 1.7 µM (A549 cells): 2.8%
inhibition at 3.5 µM (A549 cells): 8%
inhibition at 7 µM (A549 cells): 6.3%
inhibition at 14 µM (A549 cells): 7.4%
inhibition at 28 µM (A549 cells): 9.7%
inhibition at 0.44 µM (DU145 cells): -1.6%
inhibition at 0.87 µM (DU145 cells): 4.9%
inhibition at 1.7 µM (DU145 cells): -4.2%
inhibition at 3.5 µM (DU145 cells): -10.1%
inhibition at 7 µM (DU145 cells): -13%
inhibition at 14 µM (DU145 cells): -4.3%
inhibition at 28 µM (DU145 cells): -4.6%
inhibition at 0.44 µM (HCT116 cells; HCT-116, amiodarone 0 μM, itraconazole 0.44 μM): -2.8%
inhibition at 0.87 µM (HCT116 cells; HCT-116, amiodarone 0 μM, itraconazole 0.87 μM): 1.9%
inhibition at 1.7 µM (HCT116 cells; HCT-116, amiodarone 0 μM, itraconazole 1.7 μM): 8.5%
inhibition at 3.5 µM (HCT116 cells; HCT-116, amiodarone 0 μM, itraconazole 3.5 μM): 17.5%
inhibition at 7 µM (HCT116 cells; HCT-116, amiodarone 0 μM, itraconazole 7 μM): 20.4%
inhibition at 14 µM (HCT116 cells; HCT-116, amiodarone 0 μM, itraconazole 14 μM): 19.1%
inhibition at 28 µM (HCT116 cells; HCT-116, amiodarone 0 μM, itraconazole 28 μM): 16%
inhibition at […] (HCT116 cells; HCT-116, amiodarone 0 μM, itraconazole […]): -0.7%
inhibition at 0.44 µM (HCT116 cells; HCT-116, itraconazole 0.44 μM, bepridil 0 μM): -1.4%
inhibition at 0.44 µM (HCT116 cells; HCT-116, itraconazole 0.44 μM, nicardipine 0 μM): -0.5%
inhibition at 0.87 µM (HCT116 cells; HCT-116, itraconazole 0.87 μM, bepridil 0 μM): 13.3%
inhibition at 0.87 µM (HCT116 cells; HCT-116, itraconazole 0.87 μM, nicardipine 0 μM): 12.3%
inhibition at 1.7 µM (HCT116 cells; HCT-116, itraconazole 1.7 μM, bepridil 0 μM): 26.4%
inhibition at 1.7 µM (HCT116 cells; HCT-116, itraconazole 1.7 μM, nicardipine 0 μM): 15.4%
inhibition at 3.5 µM (HCT116 cells; HCT-116, itraconazole 3.5 μM, bepridil 0 μM): 30.3%
inhibition at 3.5 µM (HCT116 cells; HCT-116, itraconazole 3.5 μM, nicardipine 0 μM): 20.1%
inhibition at 7 µM (HCT116 cells; HCT-116, itraconazole 7 μM, bepridil 0 μM): 33.1%
inhibition at 7 µM (HCT116 cells; HCT-116, itraconazole 7 μM, nicardipine 0 μM): 32.7%
inhibition at 14 µM (HCT116 cells; HCT-116, itraconazole 14 μM, bepridil 0 μM): 17.8%
inhibition at 14 µM (HCT116 cells; HCT-116, itraconazole 14 μM, nicardipine 0 μM): 19.8%
inhibition at 28 µM (HCT116 cells; HCT-116, itraconazole 28 μM, bepridil 0 μM): 17.2%
inhibition at 28 µM (HCT116 cells; HCT-116, itraconazole 28 μM, nicardipine 0 μM): 22.4%
inhibition at […] (HCT116 cells; HCT-116, itraconazole […], bepridil 0 μM): 5.8%
inhibition at […] (HCT116 cells; HCT-116, itraconazole […], nicardipine 0 μM): 3%
inhibition at 0.44 µM (SKMEL-28 cells): 1.5%
inhibition at 0.87 µM (SKMEL-28 cells): 4.4%
inhibition at 1.7 µM (SKMEL-28 cells): 6.6%
inhibition at 3.5 µM (SKMEL-28 cells): 10.4%
inhibition at 7 µM (SKMEL-28 cells): 12.6%
inhibition at 14 µM (SKMEL-28 cells): 14%
inhibition at 28 µM (SKMEL-28 cells): 15%

COC(=O)C1=C(C)NC(C)=C(C(=O)OCCN(C)Cc2ccccc2)C1c1cccc([N+](=O)[O-])c1 (centres unmarked) [Nicardipine, 2-(benzyl-methylamino)ethyl methyl 1,4-dihydro-2,6-dimethyl-4-(m-nitrophenyl)-3,5-pyridinedicarboxylate monohydrochloride]
inhibition at 0.3 µM (HCT116 cells; HCT-116, itraconazole 0 μM, nicardipine 0.3 μM): 2.6%
inhibition at 0.61 µM (HCT116 cells; HCT-116, itraconazole 0 μM, nicardipine 0.61 μM): 1.4%
inhibition at 1.2 µM (HCT116 cells; HCT-116, itraconazole 0 μM, nicardipine 1.2 μM): 2.5%
inhibition at 2.4 µM (HCT116 cells; HCT-116, itraconazole 0 μM, nicardipine 2.4 μM): 5.2%
inhibition at 4.8 µM (HCT116 cells; HCT-116, itraconazole 0 μM, nicardipine 4.8 μM): 7.5%
inhibition at 9.7 µM (HCT116 cells; HCT-116, itraconazole 0 μM, nicardipine 9.7 μM): 9.7%
inhibition at 19 µM (HCT116 cells; HCT-116, itraconazole 0 μM, nicardipine 19 μM): 25.2%
inhibition at 39 µM (HCT116 cells; HCT-116, itraconazole 0 μM, nicardipine 39 μM): 81.7%
